Assay results: US12521564B2, “Method and apparatus for oncomagnetic treatment” (THE METHODIST HOSPITAL, priority 2020, dated 2026)
Entries after “also recorded” stand apart in the source; their conditions may differ.

Columns and labels:
[1] = system: GBM cells; settings: FCCP added after 2-3 OMF stimulation cycles
Method: In cultured GBM156 cells 10-minute stimulation/pause cycles were used to provoke a MPT response.
Oxygen electrode data collection: A thermostatically controlled (37° C.), water-jacketed, glass-walled, Clark-type O2 electrode was used throughout. […] The oncoscillator was attached to the end of a microphone stand and was held perpendicular to the outer glass wall of the electrode, so that there was an air gap of ≈5 mm between the two devices. There was a degree of crosstalk between to stirring bar of the O2-electrode chamber and the oncoscillator; this interaction manifests itself as jumps or drops in the apparent O2 concentrations at the beginning or the end of OMF stimulation. […] The stirrer velocity was therefore optimized to negate the interaction with the oncoscillator.
Tumor culture preparations: GBM and meningioma tumors were taken at the time of (first) excision and given the laboratory ID. They were washed in PBS, chopped with a scalpel and homogenized in a BeadBug™ homogenizer using 1.5 mm Zirconium beads, in an equal volume of PBS. […] The homogenates were grown in DMEM with 20% FBS, 1U GlutaMax™, sodium pyruvate (1 mM), penicillin (100 U/ml), and streptomycin (100 mg/ml). […]
Cells were grown to confluency, counted, harvested using trypsin, washed in ice-cold PBS and stored on ice at 8×10^9 cells/ml. O2 consumption of cells was measured in PBS, 10 mM glucose, 37° C. […]

[2] = system: GBM cells; experiment: Surviving cell count after OMF stimulation in presence of drugs; format: cell-based, human
Source text: Histograms of the percentage of cells plotted against the normalized fluorescence intensity (ratio of intensity to the width of the forward scatter) measured by flow cytometry of H2DCF-stained GBM (U87) and normal astroglial (SVGp12) cells reveal nearly a two-fold increase in GBM cells due to OMF, but a ˜50% decrease in astroglial cells (FIG. 44). To test whether cell death is caused by the OMF-induced increase in ROS, a potent antioxidant Trolox was used to counteract it, while measuring the decrease in GBM cell count due to 4 h exposure to OMF. Conversely, it also was asked whether OMF potentiates the cell killing effect of a known ROS inducer, benzylamine. […] Magnetically influenced RPM plays a role in ubiquitously expressed flavoproteins called cryptochromes, which can also generate ROS when perturbed by magnetic fields. Cryptochrome agonists have been recently shown to inhibit cancer stem cell proliferation in GBM. This alternative possibility for generation of ROS by OMF was tested by counting surviving cells after two 4 h sessions of OMF stimulation over 24 h in the presence and absence of a cryptochrome antagonist, KS15. […] According to a certain setup, cells grown in 96-well cell culture plates were OMF stimulated, sham stimulated or unstimulated for 4 h inside humidified CO2 incubator. Paraformaldehyde (4% w/v in PBS) was used for fixation and DAPI was used for staining nuclei. […] Live and dead cell images were captured at 10× magnification on a Nikon Eclipse TE2000-E microscope and analyzed with NIS-Element program or a Carl Zeiss Axio Observer microscope with an onstage incubation chamber having a humidified 5% CO2 supply. […] […] To do this surviving cells were counted after two 4 h sessions of OMF stimulation over 24 h in the presence and absence of a cryptochrome antagonist, KS15.

[3] = system: rat liver mitochondria (RLM); experiment: O2 electrode trace of rat liver mitochondria metabolizing succinate under OMF stimulation; format: biochemical; settings: 5 μM bongkrekic acid, RLM metabolizing 5 mM succinate
Method: FIG. 18A illustrates an apparatus 1800 used to perform the procedures outlined above. The apparatus 1800 includes oncoscillator component and generates OMF by rotating an N52 permanent Neodymium rare earth magnet. The oncoscillator assembly is held by a microphone stand, placed next to the water jacketed O2 electrode with a 5 mm air gap, halting vibration transfer. The oncoscillator is positioned so that the center of 1 ml media chamber is exposed to a magnetic field of ≈8 mT. The rotation of the oncoscillator magnet has a small artifactual effect on the O2 electrode stirrer bar giving rise to an apparent drop or rise in O2 levels.
The effect of OMF on energized rat liver mitochondria (RLM) was examined. […] After the addition of succinate the slow ‘State 4’ consumption of O2 (≈10 e^−s^−1) that is typical of RLM oxidizing succinate in the absence of ADP (‘State 3’) or uncouplers is observed. In state 4 the electron flux from succinate dehydrogenase, the bc1 complex and cytochrome c oxidase is controlled by the presence of a large membrane potential (ΔΨ) and ΔpH, estimated to be […] and 11 mV, respectively, under similar conditions.
When OMF stimulation is initiated, respiration is completely halted for the whole 5-min OMF stimulation period. […] After this second stimulation regime ended, respiration restarted at the rate recorded prior to the stimulation cycle. […]

[4] = system: DIPG cells; experiment: O2 consumption of primary DIPG cells under OMF stimulation cycles; format: cell-based, human; settings: 5 μM bongkrekic acid
Source text: Before OMF stimulation the O2 consumption rate is ≈40 pMol O2 sec^−1 million cells^−1, similar to that seen in Chinese hamster ovary cells (100%). During the first five minutes of OMF stimulation cycle, respiration rate falls by a third, and during the first fifteen-minute pause this respiration rate remains at 65% of the initial rate. During the second stimulation cycle, respiration falls to only 45% of the control rate. When the cycle ends the rate rises to 58%, but over the 15-minute pause the flux slows down. During the third stimulation cycle, O2 consumption is held at half the initial rate, but when stimulation ceases a rapid increase in respiration is observed, which increases over the first 10 min and then begins to slow.
The large increase in mitochondrial electron flux that is observed at the end of the third cycle is consistent with a relatively homogenous population of cells, all undergoing MPT simultaneously. To test if this is the correct interpretation of the data, the experiment was rerun, but this time in the presence of 5 μM bongkrekic acid (FIG. 20B). Blocking the ANT with bongkrekic acid slows the steady state mitochondrial electron flux to 55% of that seen in its absence (both rates arc normalized to 100% in each panel for case of interpretation). […]
O2 consumption of cells was measured in PBS, 10 mM glucose, 37° C. […]

[5] = system: high-grade meningioma cells; experiment: O2 consumption of primary high-grade meningioma cells under OMF stimulation cycles; format: cell-based, human; settings: cells pretreated with bongkrekic acid
Source text: FIG. 21 follows the format of FIG. 20, but this time primary high-grade meningioma cells were used, showing that OMF stimulation cycles cause MPT. In these cells stimulation causes a 75% drop in the electron flux, and after the end of the first cycle, the cells maintain only half their initial rate (FIG. 21A). During the second cycle of stimulation mitochondrial respiration is completely halted, and as soon as the stimulation stops there is a burst of O2 uptake ≥6 times the initial steady state level. This rate drops in a first order manner.
Oxygen electrode data collection: A thermostatically controlled (37° C.), water-jacketed, glass-walled, Clark-type O2 electrode was used throughout. […] There was a degree of crosstalk between to stirring bar of the O2-electrode chamber and the oncoscillator; this interaction manifests itself as jumps or drops in the apparent O2 concentrations at the beginning or the end of OMF stimulation.
The homogenates were grown in DMEM with 20% FBS, 1U GlutaMax™, sodium pyruvate (1 mM), penicillin (100 U/ml), and streptomycin ([…]).
O2 consumption of cells was measured in PBS, 10 mM glucose, 37° C. 2 μM carbonyl cyanide trifluoromethoxyphenylhydrazone.

SMILES: N#CC(C#N)=NNc1ccc(OC(F)(F)F)cc1 [FCCP, carbonyl cyanide-p-trifluoromethoxyphenylhydrazone]
- O2 consumption after addition of FCCP [1]: did not lead to an increase in O2 consumption

SMILES: CCO[C@H](Cc1cccc(/C(C)=N/OCc2ccc(Br)cc2)c1)C(=O)O [KS15]
- effect on the decrease in cell count produced by OMF ([2]; two 4 h sessions of OMF stimulation over 24 h, presence vs absence of KS15): significant partial attenuation

SMILES: Cc1c(C)c2c(c(C)c1O)CCC(C)(C(=O)O)O2 (stereo not drawn) [Trolox]
- counteraction of the decrease in GBM cell count due to OMF-induced ROS ([2]; 4 h exposure to OMF, antioxidant Trolox): predictions are confirmed

SMILES: NCc1ccccc1 [benzylamine]
- potentiation by OMF of the cell killing effect of the ROS inducer ([2]; 4 h exposure to OMF, benzylamine): predictions are confirmed

SMILES: CO[C@H](C/C=C\C=C\CC/C=C/C[C@H](C)/C=C/C(=C\C(=O)O)CC(=O)O)/C(C)=C\C=C(/C)C(=O)O [bongkrekic acid]
- mitochondrial 'State 4' flux [3]: inhibits
- oncoscillator-induced permeability transition ([3]; OMF stimulation): completely abolishes
- steady state mitochondrial electron flux, % of that seen in absence of bongkrekic acid ([4]; 2×10^6/ml DIPG cells in glucose supplemented PBS): 55%
- OMF-induced permeability transition (increase in respiration rate) ([4]; repeated OMF stimulation cycles): no increase in rate indicative of the permeability transition; also recorded: blocking the permeability
- OMF-induced increase in O2 uptake rate (MPT) [5]: abolished; also recorded: blocks the permeability
